Laboratory results published in patent publication US9302999B2, “Substituted triazoles as herbicides” (E. I. DU PONT DE NEMOURS AND COMPANY, priority 2012, dated 2016).

Tests used:
Assay type in all cases: in vivo
rice (Oryza sativa) = experiment: Test B flooded paddy: rice; conditions: Flood; 250 g ai/ha; applied to paddy water at 2-leaf stage; visually evaluated after 13 to 15 days
Procedure: (§1) Seeds selected from rice (Oryza sativa), sedge, umbrella (small-flower umbrella sedge Cyperus difformis), ducksalad (Heteranthera limosa), and barnyardgrass (Echinochloa crus-galli) were grown to the 2-leaf stage for testing. At time of treatment, test pots were flooded to 3 cm above the soil surface, treated by application of test compounds directly to the paddy water, and then maintained at that water depth for the duration of the test.
(§2) Treated plants and controls were maintained in a greenhouse for 13 to 15 days, after which time all species were compared to controls and visually evaluated. Plant response ratings, summarized in Table B, are based on a scale of 0 to 100 where 0 is no effect and 100 is complete control. A dash (-) response means no test result.

[1] = test system: velvetleaf (Abutilon theophrasti); experiment: Test A pre-/postemergence: velvetleaf
Method in brief: (§3)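 Whole-plant greenhouse assay in loam/sand. Preemergence directed soil spray plus simultaneous postemergence spray (one- to two-leaf stage, 2–10 cm). Rated visually ~10 days later, 0 = no effect, 100 = complete control.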

corn (Zea mays) = experiment: Test A pre-/postemergence: corn; conditions: for Corn plant response rating: Postemergence; for Plant response rating, Corn: Preemergence
Method in brief: as §3

[2] = test system: pigweed (Amaranthus retroflexus); experiment: Test A pre-/postemergence: pigweed
Method in brief: as §3

[3] = test system: morningglory (Ipomoea spp.); experiment: Test A pre-/postemergence: morningglory
Method in brief: as §3

[4] = test system: foxtail, giant (giant foxtail, Setaria faberii); experiment: Test A pre-/postemergence: foxtail, giant; conditions: for Foxtail, Giant plant response rating: Postemergence; for Plant response rating, Foxtail, Giant: Preemergence
Method in brief: as §3

[5] = test system: barnyardgrass (Echinochloa crus-galli); experiment: Test A pre-/postemergence: barnyardgrass; conditions: for Barnyardgrass plant response rating: Postemergence; for Plant response rating, Barnyardgrass: Preemergence
Method in brief: as §3

[6] = test system: ducksalad (Heteranthera limosa); experiment: Test B flooded paddy: ducksalad; conditions: Flood; 250 g ai/ha; applied to paddy water at 2-leaf stage; visually evaluated after 13 to 15 days
Procedure: as §1, §2

[7] = test system: sedge, umbrella (small-flower umbrella sedge Cyperus difformis); experiment: Test B flooded paddy: sedge, umbrella; conditions: Flood; 250 g ai/ha; applied to paddy water at 2-leaf stage; visually evaluated after 13 to 15 days
Method in brief: (§4)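 Plants were grown to the 2-leaf stage, then pots were flooded to 3 cm above the soil and compounds were applied directly into the paddy water. Water depth was held for the whole test; after 13 to 15 days in a greenhouse, injury was visually rated against untreated controls (0 = no effect, 100 = complete control).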

[8] = test system: wheat (Triticum aestivum); experiment: Test A pre-/postemergence: wheat
Method in brief: as §3

[9] = test system: crabgrass, large (large crabgrass, Digitaria sanguinalis); experiment: Test A pre-/postemergence: crabgrass, large; conditions: for Crabgrass, Large plant response rating: Postemergence; for Plant response rating, Crabgrass, Large: Preemergence
Method in brief: as §3

[10] = test system: barnyardgrass (Echinochloa crus-galli); experiment: Test B flooded paddy: barnyardgrass; conditions: Flood; 250 g ai/ha; applied to paddy water at 2-leaf stage; visually evaluated after 13 to 15 days
Method in brief: as §4

[11] = Postemergence, 125 g ai/ha, 0 to 100 scale, 0 is no effect, 100 is complete control
[12] = Postemergence, 500 g ai/ha, visual rating on 0 to 100 scale (0 no effect, 100 complete control), approximately ten days
[13] = Preemergence, 125 g ai/ha, 0 to 100 scale (0 no effect, 100 complete control)
[14] = Preemergence, 500 g ai/ha, 0 to 100 scale, 0 is no effect, 100 is complete control
[15] = 125 g ai/ha, 0 to 100 scale, 0 is no effect, 100 is complete control
[16] = 500 g ai/ha, visual rating on 0 to 100 scale (0 no effect, 100 complete control), approximately ten days
[17] = 125 g ai/ha, 0 to 100 scale (0 no effect, 100 complete control)
[18] = 500 g ai/ha, 0 to 100 scale, 0 is no effect, 100 is complete control
[19] = Preemergence, 125 g ai/ha, 0 to 100 scale where 0 is no effect and 100 is complete control
[20] = Preemergence, 500 g ai/ha, 0 to 100 scale (0 no effect, 100 complete control)
[21] = 125 g ai/ha, 0 to 100 scale where 0 is no effect and 100 is complete control
[22] = 500 g ai/ha, 0 to 100 scale (0 no effect, 100 complete control)

| SMILES | Plant response rating, Rice (0 to 100 scale, 0 is no effect, 100 is complete control) (rice (Oryza sativa)) | Velvetleaf plant response rating [1, 11] | Velvetleaf plant response rating [1, 12] | Plant response rating, Velvetleaf [1, 13] | Plant response rating, Velvetleaf [1, 14] | Corn plant response rating (corn (Zea mays); [15]) | Corn plant response rating (corn (Zea mays); [16]) | Plant response rating, Corn (corn (Zea mays); [17]) | Pigweed plant response rating [2, 12] | Foxtail, Giant plant response rating [4, 15] | Foxtail, Giant plant response rating [4, 16] | Barnyardgrass plant response rating [5, 15] | Barnyardgrass plant response rating [5, 16] | Plant response rating, Ducksalad (0 to 100 scale, 0 is no effect, 100 is complete control) [6] | Plant response rating, Sedge, Umbrella (0 to 100 scale, 0 is no effect, 100 is complete control) [7] | Wheat plant response rating [8, 12] | Crabgrass, Large plant response rating [9, 15] | Crabgrass, Large plant response rating [9, 16] | Plant response rating, Barnyardgrass (0 to 100 scale, 0 is no effect, 100 is complete control) [10] | Morningglory plant response rating [3, 12] | further results |
| --- | --- | --- | --- | --- | --- | --- | --- | --- | --- | --- | --- | --- | --- | --- | --- | --- | --- | --- | --- | --- | --- |
| Cc1nn(-c2ccc(F)c(F)c2)nc1Cc1ccnc(C(F)(F)F)c1 [Compound 55] | 60 | 100 | 100 | 40 | 70 | 20 | 50 | 20 | 100 | 90 | 90 | 90 | 90 | 100 | 100 | 40 | 80 | 90 | 70 | – | Plant response rating, Corn (corn (Zea mays); [18]): 50; Pigweed plant response rating [2, 11]: 100; Plant response rating, Pigweed [2, 13]: 100; Plant response rating, Pigweed [2, 14]: 100; Plant response rating, Morningglory [3, 13]: 50; Plant response rating, Morningglory [3, 14]: 80; Plant response rating, Foxtail, Giant [4, 17]: 100; Plant response rating, Foxtail, Giant [4, 18]: 100; Plant response rating, Barnyardgrass [5, 17]: 90; Plant response rating, Barnyardgrass [5, 18]: 100; Wheat plant response rating [8, 11]: 20; Plant response rating, Wheat [8, 13]: 10; Plant response rating, Wheat [8, 14]: 40; Plant response rating, Crabgrass, Large [9, 17]: 100; Plant response rating, Crabgrass, Large [9, 18]: 100 |
| Cc1cnccc1Oc1nn(-c2ccc(F)cc2)nc1C [Compound 87] | 0 | 0 | 0 | 0 | 0 | 0 | 0 | 0 | 0 | 0 | 0 | 0 | 0 | 0 | 50 | 0 | 0 | 0 | 0 | 0 | Plant response rating, Corn (corn (Zea mays); [18]): 0; Pigweed plant response rating [2, 11]: 0; Plant response rating, Pigweed [2, 13]: 0; Plant response rating, Pigweed [2, 14]: 0; Morningglory plant response rating [3, 11]: 0; Plant response rating, Morningglory [3, 13]: 0; Plant response rating, Morningglory [3, 14]: 0; Plant response rating, Foxtail, Giant [4, 17]: 0; Plant response rating, Foxtail, Giant [4, 18]: 0; Plant response rating, Barnyardgrass [5, 17]: 0; Plant response rating, Barnyardgrass [5, 18]: 0; Wheat plant response rating [8, 11]: 0; Plant response rating, Wheat [8, 13]: 0; Plant response rating, Wheat [8, 14]: 0; Plant response rating, Crabgrass, Large [9, 17]: 0; Plant response rating, Crabgrass, Large [9, 18]: 0 |
| Cc1cc(Oc2nn(-c3ccc(F)cc3)nc2C)ccn1 [Compound 135] | 0 | – | 30 | – | – | 10 | 20 | – | 50 | 0 | 10 | 0 | 10 | 0 | 0 | 0 | 10 | 20 | 0 | 10 | Plant response rating, Velvetleaf [1, 11]: 10; Plant response rating, Velvetleaf [1, 19]: 0; Plant response rating, Velvetleaf [1, 20]: 0; Plant response rating, Corn (corn (Zea mays); [21]): 0; Plant response rating, Corn (corn (Zea mays); [22]): 0; Plant response rating, Pigweed [2, 11]: 20; Plant response rating, Pigweed [2, 19]: 0; Plant response rating, Pigweed [2, 20]: 0; Plant response rating, Morningglory [3, 11]: 0; Plant response rating, Morningglory [3, 19]: 0; Plant response rating, Morningglory [3, 20]: 0; Plant response rating, Foxtail, Giant [4, 21]: 0; Plant response rating, Foxtail, Giant [4, 22]: 0; Plant response rating, Barnyardgrass [5, 21]: 0; Plant response rating, Barnyardgrass [5, 22]: 0; Plant response rating, Wheat [8, 11]: 0; Plant response rating, Wheat [8, 19]: 0; Plant response rating, Wheat [8, 20]: 0; Plant response rating, Crabgrass, Large [9, 21]: 0; Plant response rating, Crabgrass, Large [9, 22]: 0 |
| Cc1nn(-c2ccc(F)c(F)c2)nc1Cc1ccnc(C(F)F)c1 [Compound 136] | 35 | – | 100 | – | – | 20 | 40 | – | 100 | 90 | 90 | 60 | 90 | 75 | 85 | 30 | 60 | 90 | 45 | 100 | Plant response rating, Velvetleaf [1, 11]: 90; Plant response rating, Velvetleaf [1, 19]: 30; Plant response rating, Velvetleaf [1, 20]: 60; Plant response rating, Corn (corn (Zea mays); [21]): 0; Plant response rating, Corn (corn (Zea mays); [22]): 10; Plant response rating, Pigweed [2, 11]: 100; Plant response rating, Pigweed [2, 19]: 90; Plant response rating, Pigweed [2, 20]: 90; Plant response rating, Morningglory [3, 11]: 70; Plant response rating, Morningglory [3, 19]: 20; Plant response rating, Morningglory [3, 20]: 60; Plant response rating, Foxtail, Giant [4, 21]: 100; Plant response rating, Foxtail, Giant [4, 22]: 100; Plant response rating, Barnyardgrass [5, 21]: 70; Plant response rating, Barnyardgrass [5, 22]: 100; Plant response rating, Wheat [8, 11]: 30; Plant response rating, Wheat [8, 19]: 0; Plant response rating, Wheat [8, 20]: 10; Plant response rating, Crabgrass, Large [9, 21]: 80; Plant response rating, Crabgrass, Large [9, 22]: 100 |
